Measured values from patent publication US7579016B2, “Methods for repelling arthropods using isolongifolenone analogs” (The United States of America as represented by the …, priority 2007, dated 2009).

What was measured:
[1] = test system: Ixodes scapularis nymphs; experiment: fingertip tick repellency bioassay (treated cloth strip around finger); format: in vivo; details: for I. scapularis nymphs repelled: FIG. 4
From the text: (§1) Tick Bioassay: Blacklegged tick (Ixodes scapularis) nymphs were reared from larvae obtained from the laboratory colony at Oklahoma State University, Stillwater, Okla., and fed on rats (Beltsville Area Animal Care and Use Committee Protocol #05-0122) at the U.S. Department of Agriculture (USDA), Agricultural Research Service (ARS), Beltsville Agricultural Research Center, Beltsville, Md. Lone star tick (Amblyomma americanum) nymphs were obtained from a colony at the USDA, ARS, Knipling-Bushland U.S. Livestock Insects Research Laboratory, Kerrville, Tex. Both species of ticks were maintained at 24° C.; ˜97% RH and 16:8 h LD until testing.
(§2) The fingertip bioassay used by Schreck et al. (Schreck, C. E., et al., J. Am. Mosq. Control Assoc., 11: 136-140 (1995)) was modified (Carroll, J. F., et al., Exp. Appl. Acarol., 41: 215-224 (2007); Carroll, J. F., et al., Med. Vet. Entomol., 19:101-106 (2005)) by applying treatments to the outer layer of a strip of cloth (organdy) later doubly wrapped around the middle phalanx of an index finger. A 7×7 […] strip of organdy cloth (G Street Fabrics, Rockville, Md.) was cut in the shape of a hockey stick (9 cm long section, 4.5 cm short section, 4-4.5 cm wide) so that when the cloth was wrapped twice around the middle phalanx of the index finger it completely covered the area between the deepest creases of the distal and middle joints of the finger of a volunteer subject. The cloth extended 5-6 mm proximally beyond the deepest crease of the middles joint and overlapped 1-3 mm. With the strip of cloth in place, the boundaries of the area to receive the repellent treatment area (between the deepest creases of the distal and middle joints) were marked on the cloth with a lead pencil. This cloth was used as a template for tracing the boundaries on other cloths.
(§3) Stoichiometrically equivalent stock 95% ethanol solutions of the compounds were prepared: 50 nmol Deet/μL and 50 nmol isolongifolenone or isolongifolenone analog/μL for use in all bioassays. The volumes of the respective solutions used to generate 155 nmole repellent doses/cm^2 cloth were based on the dimensions of the middle phalanx of the left index finger of a volunteer subject. The volume of the treated solutions required to give the desired nmoles/cm^2 cloth dosages was calculated from the average of the circumferences of the two finger joints multiplied by the distance between the deepest crease of each joint.
(§4) A repellent solution (52 μL) or ethanol (control) of the same volume was applied to the designated treatment area on the cloth and allowed to dry. As with Schreck et al. (1995), it was necessary to screen I. scapularis nymphs for active individuals. While the treated cloth dried, I. scapularis nymphs were transferred by forceps from a holding vial to a finger. Ten ticks that crawled ≧5 mm were sequestered in a Petri dish that had been glued inside a larger Petri dish with water added to the space between their sides to form a moat. After the cloth dried (10-12 min), it was wrapped twice around the index finger. To keep the cloth wrapped around the finger, three small dabs of beeswax were smeared on the upper surface of the inner layer of cloth at the edge of the overlap and pressure applied for 10 s. Using forceps, the 10 selected ticks were placed on the tip of the horizontally held finger between the nail and the edge of the cloth. When the tenth tick was placed on the finger, the finger was slowly tipped vertically with the tip downward. The locations of the ticks were recorded at 1, 3, 5, 10 and 15 min after their release on the finger. […] For both species, the finger was held over moated Petri dishes while ≧1 tick was on it. During bioassays temperatures ranged from 23°-26° C. and 10-56% RH. The repellent data were compared by paired samples t-test (SPSS 10.0 for Windows for significance at α=0.05 level, George, D., and P. Mallery, SPSS for Windows step by step: A simple guide and reference, 4th ed., 2002, Allyn & Bacon, Boston, Mass.). […]

[2] = test system: Aedes aegypti; experiment: in vitro K&D module mosquito biting-deterrent bioassay; format: in vivo; details: for proportion of mosquitoes not biting (biting deterrence): 3-minute exposure, 200 females, FIG. 2; for proportion of mosquitoes deterred, dose-response assay: FIG. 3
From the text: (§5) Mosquito Bioassay: Yellowfever mosquito, Aedes aegypti (red eye Liverpool strain) and malarial vector mosquito, Anopheles stephensi used in the study were from colonies maintained at the Walter Reed Army Institute of Research, Department of Entomology, Silver Spring, Md. The mosquitoes were reared using the procedure of Gerberg et al. (Gerberg, E. J., et al., Manual for mosquito rearing and experimental techniques, 1994, AMCA Inc., Lake Charles, La.). Larvae were fed ground tropical fish flakes (Tetramin Tropical Fish Flakes, Tetra Sales, Blacksburg, Va., wwv.tetra-fish.com). Colonies were maintained in a photoperiod of 12:12 h (L:D with lights on at 0600 h) at 27° C. and 80% RH. Adult mosquitoes were supplied with cotton pads moistened with 10% aqueous sucrose solution.
(§6) The comparative mosquito biting-deterrent activity of isolongifolenone and Deet was evaluated using the mosquitoes A. degypti and An. stephensi. Isolongifolenone was synthesized as described earlier. The well known and widely used synthetic repellent chemical Deet (McCabe, E. T., et al., J. Org. Chem., 19: 493-498 (1954)) was purchased from Morflex, Inc., Greensboro, N.C. Deet is often considered to be the best mosquito repellent ever developed (Elston, D. M., J. Am. Acad. Dermatol., 36: 644-645 (1998)) and is used as a gold standard to which new candidate repellents are compared. A comparative bioassay of the two compounds was conducted by using the in vitro K&D module bioassay system (Klun et al., 2005). The K&D in vitro assay system consists of three components: (1) A Plexiglas™ 29.7 cm×7.1 cm K&D module composed of six adjacent cells each designed to hold mosquitoes and each having a rectangular 3×4 cm floor hole that opened and closed by a sliding door. (2) A Plexiglas™ six-well 29.7 cm×7.1 cm water water-bath warmed (38° C.) reservoir with six 3×4 cm wells designed to match the sliding-door openings of the K&D module base and to contain 6 mL warmed human red blood cells. The wells were covered with a collagen membrane (the blood cell-membrane unit simulated a human host for mosquito feeding). (3) A 29.7×7.1 cm×0.4 cm Teflon® separator having six rectangular openings like the K&D module. In the study, test compounds in 95% ethanol solution were applied to 3×4 cm cloth areas marked with ink pen on a 29.7-cm×7.1 cm strip of organdy cloth. We routinely applied ethanol solutions (115 μL) 0.5 cm outside of the 3×4 marked cloth areas to ensure that mosquitoes were never exposed to any area of untreated cloth. […] The Teflon® separator was placed over the treated cloth. The function of the separator was to prevent direct contact of the K&D module with chemically treated cloth. A bioassay replicate consisted of three treatments: isolongifolenone, Deet, and 95% ethanol treated cloth as control. We used two replicates with treatments randomly positioned over the six-cells of a reservoir.
(§7) The mosquito bioassays were conducted With the in vitro K&D module systems positioned in a Purair ductless chemical fume hood (Air Science USA, LLC, Fort Myers, Fla.) from 1300-1600 h over days at 24°-26° C. and 24-51%, RH in ambient laboratory light. Mated nulliparous A. aegypti and A. stephensi (5-15 d old) were tested, and they had no water 24 h before testing. Mosquitoes were loaded into each of six adjacent K&D module cells and promptly after loading they were exposed to 2 replicates of the three treatments on the organdy cloth. Routinely, a six-celled K&D module containing five mosquitoes/cell was positioned on the Teflon® separator over air-dried cloth treatments covering the blood-membrane wells, and trap doors of the K&D modules were opened to expose-the treatments to the sets of mosquitoes. After a 3-minute exposure, the number of mosquitoes biting through cloth treatments in each cell was recorded and mosquitoes were prodded back into the cells. […]

[3] = test system: Anopheles stephensi; experiment: as above; format: in vivo; details: 25 nmol/cm^2 cloth; 3-minute exposure; 200 females; FIG. 2
From the text: as §5, §6, §7

[4] = test system: mosquito; details: 25 nmol compound/cm^2, applied to human skin or cloth; cited from earlier work
[5] = test system: Amblyomma americanum nymphs; experiment: fingertip tick repellency bioassay (treated cloth strip around finger); format: in vivo; details: A. americanum nymphs; 155 nmol/cm^2 cloth; 10 min after release on finger
From the text: as §1, §2, §3, §4

SMILES	I. scapularis nymphs repelled ([1]; 19.5 nmole/cm^2 cloth)	I. scapularis nymphs repelled ([1]; 39 nmole/cm^2 cloth)	I. scapularis nymphs repelled ([1]; 78 nmole/cm^2 cloth)	proportion of mosquitoes not biting (biting deterrence) ([2]; 25 nmol/cm^2 cloth)	proportion of mosquitoes not biting (analog comparison) ([2]; 25 nmol/cm^2 cloth, 100 mosquitoes per compound, FIG. 6)	proportion of mosquitoes not biting (biting deterrence) [3]	suppression of mosquito biting compared to controls [4]	Proportion Repelled ([1]; I. scapularis nymphs, 155 nmol/cm^2 cloth, 10 min after release on finger)	Proportion Repelled [5]	proportion of mosquitoes deterred, dose-response assay ([2]; 25 nmole compound/cm^2 cloth)	proportion of mosquitoes deterred, dose-response assay ([2]; 36 nmole compound/cm^2 cloth)
CCN(CC)C(=O)c1cccc(C)c1 [Deet, N,N-Diethyltoluamide, reference compound]	15%	55%	100%	significantly greater	significantly greater	significantly greater	ca. 80%				
CC1(C)C2=CC(=O)CC(C)(C)[C@]23CC[C@H]1C3 [Isolongifolenone, (−)-isolongifolenone]	35%	65%	100%	more effectively than Deet		more effectively than Deet		1.0	0.725	significantly greater than the proportions deterred by Deet	significantly greater than the proportions deterred by Deet
